This is an account of results in US12275733B2, “Substituted pyrido[3,4-b]indoles for the treatment of cartilage disorders” (Sanofi, priority 2016, dated 2025).

Some results are limits rather than exact numbers.

Broadly, the EC50 is the midpoint of the concentration-response curve. Broadly, the Emax is the maximal effect, on the per cent scale that the assay sets.

The test relates to ATDC5 cells. Put plainly: Chondrogenesis activity assay in ATDC5 cells (collagen type II induction, immunofluorescence). The class given is cell-based, mouse. The settings on record: Mus musculus; for EC50: collagen type II induction in ATDC5 cells, concentration reaching 50% of maximum induction; for Emax: maximum percent induction of collagen type II relative to internal reference compound at 10 μM, ATDC5 cells. In short, it runs like this: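 Mouse ATDC5 cells in insulin (10 μg/ml)-containing DMEM/F12 differentiation medium with 5% FCS were exposed to compound, typically 40 nM–10 μM at 0.1% DMSO, for 4 days at 37 °C. Intracellular collagen type II was quantified by Alexa Fluor 488 immunostaining with high-content imaging, relative to DMSO and a 10 μM reference compound.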

In the case of `COc1ncc(-c2cc(Cl)cc3c4ccncc4n(CC(F)(F)F)c23)cc1F` [Example 85, 6-Chloro-8-(5-fluoro-6-methoxy-pyridin-3-yl)-9-(2,2,2-trifluoro-ethyl)-9H-pyrido[3,4-b]indole], the EC50 was more than 10000 nM and the Emax lay within 20 to 50%.

Compound `FC(F)(F)Cn1c2cnccc2c2cc(Cl)cc(-c3ccc(N4CCOCC4)nc3)c21` [Example 86, 6-Chloro-8-(6-morpholin-4-yl-pyridin-3-yl)-9-(2,2,2-trifluoro-ethyl)-9H-pyrido[3,4-b]indole] had an EC50 of 750 nM and an Emax of more than 80%.

Regarding `CN1CCN(c2ccc(-c3cc(Cl)cc4c5ccncc5n(CC(F)(F)F)c34)cn2)CC1` [Example 87, 6-Chloro-8-[6-(4-methyl-piperazin-1-yl)-pyridin-3-yl]-9-(2,2,2-trifluoro-ethyl)-9H-pyrido[3,4-b]indole], it took 1500 nM to reach a half-maximal effect (EC50) and the Emax fell in the range of 50 to 80%.

Turning to `FC(F)(F)Cn1c2cnccc2c2cc(Cl)cc(-c3ccc(C(F)(F)F)nc3)c21` [Example 88, 6-Chloro-9-(2,2,2-trifluoro-ethyl)-8-(6-trifluoromethyl-pyridin-3-yl)-9H-pyrido[3,4-b]indole], the EC50 turned out to be 1700 nM and the maximal effect (Emax) is less than 20%.

In the case of `FC(F)(F)Cn1c2cnccc2c2cc(Cl)cc(-c3ccc(N4CCCCC4)nc3)c21` [Example 89, 6-Chloro-8-(3,4,5,6-tetrahydro-2H-[1,2′]bipyridinyl-5′-yl)-9-(2,2,2-trifluoro-ethyl)-9H-pyrido[3,4-b]indole], the EC50 was more than 10000 nM and the Emax was more than 80%.

Compound `CC#CCn1c2cnccc2c2cc(Cl)cc(-c3ccc(Cl)nc3)c21` [Example 90, 9-But-2-ynyl-6-chloro-8-(6-chloro-pyridin-3-yl)-9H-pyrido[3,4-b]indole] had an EC50 of more than 10000 nM and an Emax of less than 20%.

With `CCn1c2c(-c3ccc(OC)nc3)cc(Cl)cc2c2ccnc(C)c21` [Example 91, 6-Chloro-9-ethyl-8-(6-methoxy-pyridin-3-yl)-1-methyl-9H-pyrido[3,4-b]indole], the EC50 worked out at 1500 nM and the Emax was more than 80%.

`CCn1c2c(-c3cnc4[nH]ccc4c3)cc(Cl)cc2c2ccnc(C)c21` [Example 92, 6-Chloro-9-ethyl-1-methyl-8-(1H-pyrrolo[2,3-b]pyridin-5-yl)-9H-pyrido[3,4-b]indole]: the response was half-maximal at 2500 nM (EC50) and the maximal effect (Emax) is more than 80%.

`CCn1c2c(-c3ccc(N4CCOCC4)nc3)cc(Cl)cc2c2ccnc(C)c21` [Example 93, 6-Chloro-9-ethyl-1-methyl-8-(6-morpholin-4-yl-pyridin-3-yl)-9H-pyrido[3,4-b]indole] had an EC50 of 2200 nM and an Emax of more than 80%.

Regarding `COc1ccc(-c2cc(Cl)cc3c2[nH]c2c(C)nccc23)cn1` [Example 94, 6-Chloro-8-(6-methoxy-pyridin-3-yl)-1-methyl-9H-pyrido[3,4-b]indole], a half-maximal effect (EC50) was put at 750 nM and the Emax was more than 80%.

The compound `Cc1ccc(-c2cc(Cl)cc3c2[nH]c2c(C)nccc23)cn1` [Example 95, 6-Chloro-1-methyl-8-(6-methyl-pyridin-3-yl)-9H-pyrido[3,4-b]indole] showed an EC50 of 680 nM and an Emax of 50 to 80%.

Take `Cc1nccc2c1[nH]c1c(-c3ccc(N4CCOCC4)nc3)cc(Cl)cc12` [Example 96, 6-Chloro-1-methyl-8-(6-morpholin-4-yl-pyridin-3-yl)-9H-pyrido[3,4-b]indole]: a half-maximal effect (EC50) was put at 850 nM and the Emax fell in the range of 50 to 80%.

`Cc1nccc2c1[nH]c1c(-c3ccc(Cl)nc3Cl)cc(Br)cc12` [Example 98, 6-Bromo-8-(2,6-dichloro-pyridin-3-yl)-1-methyl-9H-pyrido[3,4-b]indole]: the EC50 came out at 2400 nM and the Emax was more than 80%.

Regarding `COc1ncc(-c2cc(Cl)cc3c2[nH]c2c(C)nccc23)cc1F` [Example 99, 6-Chloro-8-(5-fluoro-6-methoxy-pyridin-3-yl)-1-methyl-9H-pyrido[3,4-b]indole], the EC50 is more than 10000 nM and the Emax was less than 20%.

`Cc1nccc2c1[nH]c1c(-c3ccc(C#N)nc3)cc(Cl)cc12` [Example 100, 5-(6-Chloro-1-methyl-9H-pyrido[3,4-b]indol-8-yl)-pyridine-2-carbonitrile] registered a concentration giving a half-maximal response (EC50) of 1000 nM and an Emax of less than 20%.

Compound `Cc1nccc2c1[nH]c1c(-c3ccc(N4CCCCC4)nc3)cc(Cl)cc12` [Example 101, 6-Chloro-1-methyl-8-(3,4,5,6-tetrahydro-2H-[1,2′]bipyridinyl-5′-yl)-9H-pyrido[3,4-b]indole] came in with an EC50 of 8200 nM and an Emax of 20 to 50%.

On to `Cc1nccc2c1[nH]c1c(-c3ccc(OC(C)C)nc3)cc(Cl)cc12` [Example 102, 6-Chloro-8-(6-isopropoxy-pyridin-3-yl)-1-methyl-9H-pyrido[3,4-b]indole], for which the EC50 was 2100 nM and the Emax lay within 20 to 50%.

In the case of `COc1ccc(-c2cc(Cl)cc3c2[nH]c2c(C)nccc23)c(Cl)n1` [Example 103, 6-Chloro-8-(2-chloro-6-methoxy-pyridin-3-yl)-1-methyl-9H-pyrido[3,4-b]indole], it took 1900 nM to reach a half-maximal effect (EC50) and the Emax was more than 80%.

`COc1ccc(-c2cc(Cl)cc3c2[nH]c2c(C)nccc23)c(C)n1` [Example 104, 6-Chloro-8-(6-methoxy-2-methyl-pyridin-3-yl)-1-methyl-9H-pyrido[3,4-b]indole] displayed an EC50 of 3500 nM and an Emax of more than 80%.

Turning to `CCc1nccc2c1[nH]c1c(-c3ccc(Cl)nc3Cl)cc(Cl)cc12` [Example 105, 6-Chloro-8-(2,6-dichloro-pyridin-3-yl)-1-ethyl-9H-pyrido[3,4-b]indole], a half-maximal response (EC50) required 1000 nM and the Emax was in the range of 50 to 80%.

Take `CC(C)c1nccc2c1[nH]c1c(-c3ccc(Cl)nc3Cl)cc(Cl)cc12` [Example 106, 6-Chloro-8-(2,6-dichloro-pyridin-3-yl)-1-isopropyl-9H-pyrido[3,4-b]indole]: the EC50 was more than 10000 nM and the Emax lay in the range of 20 to 50%.

For `Cc1nccc2c1[nH]c1c(-c3ccc(-n4ccccc4=O)nc3)cc(Cl)cc12` [Example 107, 5′-(6-Chloro-1-methyl-9H-pyrido[3,4-b]indol-8-yl)-[1,2′]bipyridinyl-2-one], the EC50 was 560 nM and the Emax lay in the range of 20 to 50%.

Regarding `Cc1cc(-c2ccc(Cl)nc2Cl)c2[nH]c3c(C)nccc3c2c1` [Example 108, 8-(2,6-Dichloro-pyridin-3-yl)-1,6-dimethyl-9H-pyrido[3,4-b]indole], the response was half-maximal at 1400 nM (EC50) and the Emax is more than 80%.

Consider `Cc1nccc2c1[nH]c1c(-c3ccc(N4CCNC(=O)C4)nc3)cc(Cl)cc12` [Example 109, 4-[5-(6-Chloro-1-methyl-9H-pyrido[3,4-b]indol-8-yl)-pyridin-2-yl]-piperazin-2-one], for which the EC50 stood at 720 nM and the Emax lay in the range of 50 to 80%.

With `Cc1nccc2c1[nH]c1c(-c3ccc(N4CCOC4=O)nc3)cc(Cl)cc12` [Example 110, 3-[5-(6-Chloro-1-methyl-9H-pyrido[3,4-b]indol-8-yl)-pyridin-2-yl]-oxazolidin-2-one], the EC50 was more than 10000 nM and the Emax fell in the range of 20 to 50%.

For `COCCn1c2cnccc2c2cc(Cl)cc(-c3ccc(Cl)nc3Cl)c21` [Example 111, 6-Chloro-8-(2,6-dichloro-pyridin-3-yl)-9-(2-methoxy-ethyl)-9H-pyrido[3,4-b]indole], the EC50 amounted to 1800 nM and the maximal effect (Emax) was in the range of 50 to 80%.

As to `FC(F)(F)Cn1c2cnccc2c2cc(Cl)cc(-c3cnn(Cc4ccncc4)c3)c21` [Example 112, 6-Chloro-8-(1-pyridin-4-ylmethyl-1H-pyrazol-4-yl)-9-(2,2,2-trifluoro-ethyl)-9H-pyrido[3,4-b]indole], the EC50 came out at 490 nM and the Emax was more than 80%.

Regarding `COc1ccc(-c2cc(Cl)cc3c2[nH]c2c(C)nccc23)c(N)n1` [Example 113, 3-(6-Chloro-1-methyl-9H-pyrido[3,4-b]indol-8-yl)-6-methoxy-pyridin-2-ylamine], the EC50 stood at 780 nM and the maximum response (Emax) was more than 80%.

On to `Cn1c(-c2cc(Cl)cc3c4ccncc4n(CC(F)(F)F)c23)cnc1Cl` [Example 114, 6-Chloro-8-(2-chloro-3-methyl-3H-imidazol-4-yl)-9-(2,2,2-trifluoro-ethyl)-9H-pyrido[3,4-b]indole], for which the EC50 was 5700 nM and the Emax was 20 to 50%.

Compound `Cc1nccc2c1[nH]c1c(-c3cnn(Cc4cccnc4)c3)cc(Cl)cc12` [Example 115, 6-Chloro-1-methyl-8-(1-pyridin-3-ylmethyl-1H-pyrazol-4-yl)-9H-pyrido[3,4-b]indole] displayed a 50% effective concentration (EC50) of 490 nM and an Emax of more than 80%.

Compound `CSc1ccc(-c2cc(Cl)cc3c2[nH]c2c(C)nccc23)cn1` [Example 120, 6-Chloro-1-methyl-8-(6-methylsulfanyl-pyridin-3-yl)-9H-pyrido[3,4-b]indole] yielded an EC50 of 1400 nM and an Emax of 50 to 80%.

The compound `CCn1c2c(-c3cnn(Cc4ccc(C)nc4C)c3)cc(Cl)cc2c2ccnc(C)c21` [Example 121, 6-Chloro-8-[1-(2,6-dimethyl-pyridin-3-ylmethyl)-1H-pyrazol-4-yl]-9-ethyl-1-methyl-9H-pyrido[3,4-b]indole] displayed an EC50 of 590 nM and a maximum response (Emax) of more than 80%.

Compound `CCn1c2cnccc2c2cc(Cl)cc(-c3ccncc3)c21` [Example 123, 6-Chloro-9-ethyl-8-pyridin-4-yl-9H-pyrido[3,4-b]indole] came in with an EC50 of 260 nM and a maximal effect (Emax) of 20 to 50%.

The compound `CCn1c2cnccc2c2cc(Cl)cc(-c3ccco3)c21` [Example 124, 6-Chloro-9-ethyl-8-furan-2-yl-9H-pyrido[3,4-b]indole] returned an EC50 of 2600 nM and an Emax of less than 20%.
